Results published in patent US8691764B2, “Inhibitors of NF-κB activity” (The Research Foundation for the State University of New York, priority 2007, dated 2014).

Key:
annexin 1 = experiment: Induction of annexin 1 in BxPC-3 cells, Western blot of nuclear and cytoplasmic extracts; format: cell-based, human
Method: The human pancreatic cancer cell line, BxPC-3, or the colon cancer cell line HT-29, both from ATCC (Manassas, Va.) were maintained and grown in RPMI 1640 or McCoy's 5A medium (Cellgro) supplemented with 10% fetal bovine serum (HyClone) and 1% penicillin/streptomycin (Cellgro) in a humidified incubator at 37° C. and 5% CO2.
The cell fractions were obtained as described by Andrews and Faller (N. C. Andrews and D. V. Faller, Nucleic Acids Res. 19:2499 (1991)) with modification. Briefly, the cells were pelleted after treatment and washed three times with PBS. The cell pellets were resuspended in ice cold buffer A (10 mM HEPES, pH 7.9, 10 mM KCl, 1.5 mM MgCI2, 0.5 mM DTT, 0.5 mM PMSF) with protease inhibitor cocktail (Sigma) and incubated on ice for 15 min with occasional mixing by gently tapping the tube. The cell lysates were centrifuged up to 5000 rpm for three times. The supernatants were collected as cytoplasmic extracts. Nuclear pellets were washed with buffer A and resuspended in buffer C (20 mM HEPES, pH 7.9, 450 mM NaCl, 1.5 mM MgCI2, 0.2 mM EDTA, 0.5 mM DTT, 0.5 mM PMSF, 25% Glycerol) with protease inhibitor cocktail (Sigma) and incubated on ice for 30 min with occasional mixing to extract nuclear proteins. Nuclear extracts were cleared by centrifugation (14,800 rpm for 10 min) and the supernatants were collected as nuclear extracts.
For Western blotting, the proteins from both cytoplasmic extracts and nuclear extracts were separated by SDS-polyacrylamide gel electrophoresis and transferred onto PVDF membranes (Millipore). The membranes were blocked in 5% nonfat dry milk-TBS-T (20 mM Tris-HCl, pH 7.5, 500 mM NaCl. 0.3% Tween 20) at room temperature (RT) for an hour and probed with anti-annexin 1, c-IAP-1, c-IAP-2, and TRAF-1 (Santa Cruz Biotechnology, Inc. CA), and anti-Bcl-2 antibodies (Cell Signaling Technology), in 5% nonfat dry milk-TBS-T at 4° C. overnight. The blots were washed three times with TBS-T for 5 min each wash and incubated with horseradish peroxidase-conjugated secondary antibody (Santa Cruz) in 5% nonfat dry milk-TBS-T at RT for an hour. After five washes with TBS-T, the blots were developed with the enhanced chemiluminescence system (ECL™ Western Blotting System, Amersham Biosciences) and exposed to x-ray film according to the manufacturer's instructions. Protein loading was normalized using anti-β-actin antibodies (Santa Cruz Biotechnology, Inc).

HT-29 cells = experiment: Apoptosis, Cell Death Detection ELISA, HT-29 cells; format: cell-based, human
Method: Apoptosis was determined using the Cell Death Detection ELISA^PLUS assay kit according to the manufacturer's protocol (Roche, Indianapolis, Ind.). Briefly, the cells were treated with either NO-ASA or Dex for 3 h. Cells were harvested and washed three times with PBS. The cell pellet was resuspended with lysis buffer and incubated for 30 min at RT. Cell […] at 200×g for 10 min. The ELISA assay was performed using 20 μl cell lysate and 80 μl Immunoreagent (containing 72 μl Incubation Buffer, 4 μl Anti-histone-biotin Solution, and 4 μl Anti-DNA-POD Solution) per micro-plate well. The micro-plate was covered with an adhesive foil and incubated on a shaker under gentle shaking at 200 rpm for 2 h at RT. The solution in each well was removed thoroughly by tapping and the pellets were rinsed three times with 200 μl Incubation Buffer. […] The absorbance was measured at 405 nm using the SpectraMax micro-plate reader (Molecular Devices, Sunnyvale).
Briefly, annexin 1 cDNA clones (OreGen) or the PCMV6XL5 vector, as a negative control, were transiently transfected into BxPC-3 cells grown to 40-60% confluency using Lipofectamine according to the product protocol (Invitrogen). […] NF-κB activity was subsequently measured by the TransBinding NF-κB Assay Kit and ELISA as described in Example 2. […]

NF-κB p65 = experiment: Confocal microscopy co-localization of annexin 1 and p65, BxPC-3 cells; format: cell-based, human; conditions: 3 h, NO-ASA 20 μM or Dex 4 μM
Method: BxPC-3 cells were seeded on cover-glasses in a 12-well plate for 24 h. The cells were exposed to 10 or 20 μM NO-ASA or 2 or 4 μM Dex for 3 h, fixed with 4% paraformaldehyde in PBS containing 30 mM sucrose, permeabilized with 0.2% saponin in PBS containing 30 mM sucrose, and blocked with 5% normal goat serum in PBS containing 1% BSA. The cells were incubated with mouse monoclonal IgG2b anti-annexin 1 (Santa Cruz Biotechnology) and rabbit monoclonal IgG anti-p65 (Cell Signaling, MA) at RT for 1 h. After three washes with PBS containing 1% BSA, the cells were incubated with Alexa555 conjugated donkey anti-mouse IgG (Molecular Probes) and Alexa 488 conjugated goat anti-rabbit IgG (Molecular Probes) at RT for an hour. Images were acquired with a Zeiss LSM 510 META NLO Two-Photon Laser Scanning Image Confocal Microscope and the colocalization scores were generated by the Colocalization Macro program. The control experiments were performed using non-specific mouse IgG2b and/or rabbit IgG. Red fluorescence localized annexin 1, green fluorescence localized p65 (NF-κB) and co-localization of the two proteins generated yellow fluorescence.

Bcl-xL = experiment: NF-κB dependent gene (Bcl-xL) expression in epithelial cells of treated mice; format: in vivo; conditions: wild-type and Min mice
Method: To assess whether these changes occur in vivo, the inventors studied isolated small intestine epithelial cells from Min mice and the corresponding wild type mice C57BL/6J (of which the Min mice are a congenic derivative) treated with NO-ASA 100 mg/kg or Dex 10 mg/kg daily for 7 days. Min (multiple intestinal neoplasia), a mutant allele of the murine APC (adenomatous polyposis coli) locus, encodes a nonsense mutation at codon 850. Heterozygous Min mutants spontaneously develop tumors in the intestine and represent a model of intestinal carcinogenesis (M. Lipkin et al., Ann. N.Y. Acad. Sci. 889:14-19 (1999); A. Moser, H. Pitot, W. Dove, Science 247:322-324 (1990)). The levels of annexin 1 were increased in both Min and wild-type mice treated with either NO-ASA or Dex (FIG. 7A and FIG. 8A). The induction of annexin 1 by NO-ASA or Dex was accompanied by the inhibition of NF-κB activity (FIGS. 7B and 8B).

nitric oxide-donating aspirin [NO-ASA]
time of maximal annexin 1 levels in the cytoplasm (annexin 1; cytoplasm): 3 h | expression of annexin 1 (annexin 1; nuclear and cytoplasmic extracts): induced | time of peak annexin 1 levels in the nucleus (annexin 1; nucleus): 3 h | induced cell apoptosis after knock-down of annexin 1 by specific siRNA (HT-29 cells; HT-29 cells (FIG. 3D)): completely abrogated | cell apoptosis (HT-29 cells; HT-29 cells, 3 h): induced | co-localization of annexin 1 and p65 (NF-κB p65): co-localize most strongly in the nucleus | NF-κB dependent gene expression (Bcl-xL) (Bcl-xL): inhibited NF-κB dependent gene expression
